This note sets out measurements from patent US20250206756A1, “INHIBITORS” (Pfizer Inc., priority 2023, published 2025).

The assay has as its system SZ95 human sebocytes. Nature of the assay: High content imaging assay to quantify lipid droplets in a human sebocyte cell line. The class given is cell-based. As to conditions: 48 hours incubation, Bodipy neutral lipid staining, read-out: Human SZ95 Sebocyte Lipid Imaging Assay / Percent Inhibition of Lipid Droplets IC50. As for the experimental part:
High content imaging assay to quantify lipid droplets in a human sebocyte cell line One week prior to cell dosing, SZ95 human sebocytes were thawed and grown in a T175 tissue culture flask containing 50 mL media. Media was prepared as follows: Sebomed basal medium with stable glutamine and without phenol red (Sigma; Catalog No. F8205), 10% heat inactivated fetal bovine serum (Invitrogen; Cat. No. 10082), 5 ng/mL recombinant human epidermal growth factor (Gibco; Catalog No. PHG0311), 1 mM calcium chloride (Fisher Scientific; Catalog No. BP9742), and 1X penicillin/streptomycin (Thermo Fisher; Catalog No. 15140-122). Cells were cultured at 37° C. and the media was replaced every 48-72 hours until start of assay. Compounds were delivered as a 75 nL spot by the Echo 550 (Labcyte) into 384-well assay plates (PerkinElmer; Catalog No. 6057308) with final compound concentrations of […], 0.003, 0.001, 0.0003, and 0.0001 μM. The final DMSO concentration was 0.1%. SZ-95 cells were washed with Dulbecco's phosphate buffered saline (DPBS, Lonza; Catalog No. 17-512Q) and then detached with 0.25% Trypsin-EDTA (Gibco; Catalog No. 25200056). Growth media (25 mL) was added to the flask and the cells were further diluted to 1.33×10∧5 cells/mL. SZ-95 cells were plated at a density of 10,000 cells/well in 75 μL and incubated for 48 hours at 37° C. Using the Biomek FX (Beckman), 25 μL of media was removed and the cells were fixed by adding 18.7 μL of 16% paraformaldehyde (Electron Microscopy Sciences; Cat. No. 50980488). After a 30 minute incubation at room temperature, the plates were washed twice with 75pi DPBS. Following the second wash, all remaining DPBS was removed. Staining solution was prepared with 2 μM Bodipy (Invitrogen; Cat. No D3922, diluted 1:1000) and Hoechst (Life Technologies; Cat. No. H3570, diluted 1:2000) in DPBS. Using the Biomek FX, 30 μL of the staining solution was added to each well. The cells were incubated for 20 minutes at room temperature, then washed once with 75 μL DPBS. Finally, 30 μL of DPBS was added to each well and the plates were sealed with light blocking film. The plates were read on an Opera Phenix (PerkinElmer) for high content imaging. Nuclei were detected by Hoechst staining and lipid droplets by Bodipy, which stains neutral lipids. […] The percent (%) effect at each concentration of compound is calculated by Genedata Screener analysis program using a four-parameter logistic dose response equation and is based on and relative to the amount of lipid droplets in the positive and negative control wells contained within each assay plate to determine the 50% inhibition concentration (IC50).

As for `CCOc1cc(C(=O)N2CCC3(CC2)CC(=O)c2nc(C(C)(C)C)sc2C3)cc2c(C)n[nH]c12` [Example 1, 2-(tert-butyl)-1′-(7-ethoxy-3-methyl-1H-Indazole-5-carbonyl)-5H-spiro[benzo[d]thiazole-6,4′-piperidin]-4(7H)-one], the IC50 was determined as 10 nM.
On to `Cc1nn(C)c2c(O)cc(C(=O)N3CCC4(CC3)CC(=O)c3nc(C(C)(C)C)sc3C4)cc12` [Example 2], for which the IC50 was 11 nM.
Under `CCOc1cc(C(=O)N2CCC3(CC2)Cc2sc(C(C)(C)C)nc2C(O)C3)cc2c(C)nn(C)c12` (racemic) [Example 4, rac-(R)-(2-(tert-butyl)-4-hydroxy-4,7-dihydro-5H-spiro[benzo[d]thiazole-6,4′-piperidin]-1′-yl)(7-ethoxy-1,3-dimethyl-1H-indazol-5-yl)methanone] stands 20 nM; under `CCOc1cc(C(=O)N2CCC3(CC2)CC(=O)c2nc(C(C)(C)CO)sc2C3)cc2c(C)nn(C)c12` [Example 3, 1′-(7-ethoxy-1,3-dimethyl-1H-Indazole-5-carbonyl)-2-(1-hydroxy-2-methylpropan-2-yl)-5H-spiro[benzo[d]thiazole-6,4′-piperidin]-4(7H)-one], 16 nM; under `CCOc1cc(C(=O)N2CCC3(CC2)Cc2sc(C(C)(C)C)nc2[C@H](O)C3)cc2c(C)nn(C)c12` [Example 4a, (R)-(2-(tert-butyl)-4-hydroxy-4,7-dihydro-5H-spiro[benzo[d]thiazole-6,4′-piperidin]-1′-yl)(7-ethoxy-1,3-dimethyl-1H-indazol-5-yl)methanone], 122 nM.
Turning to `Cc1nn(C)c2c(O)cc(C(=O)N3CCC4(CC3)CC(=O)c3nc(C(C)(C)CO)sc3C4)cc12` [Example 8], the IC50 is over 0.145 nM.
Turning to `CCOc1cc(C(=O)N2CCC3(CC2)Cc2sc(C(C)(C)C)nc2[C@@H](O)C3)cc2c(C)nn(C)c12` [Example 4b], the IC50 was 7 nM.
